The values below come from ChEMBL document CHEMBL2412997, “Determination of the binding mode and interacting amino-acids for dibasic H3 receptor antagonists” (Bioorg Med Chem, 2013).

Each structure is given as a SMILES string.

In the first experiment the target is T1, Histamine H3 receptor (Homo sapiens, UniProt Q9Y5N1). The experiment is described as follows: Binding affinity to histamine H3 receptor (unknown origin).
T1 sequence (Q9Y5N1 whole entry): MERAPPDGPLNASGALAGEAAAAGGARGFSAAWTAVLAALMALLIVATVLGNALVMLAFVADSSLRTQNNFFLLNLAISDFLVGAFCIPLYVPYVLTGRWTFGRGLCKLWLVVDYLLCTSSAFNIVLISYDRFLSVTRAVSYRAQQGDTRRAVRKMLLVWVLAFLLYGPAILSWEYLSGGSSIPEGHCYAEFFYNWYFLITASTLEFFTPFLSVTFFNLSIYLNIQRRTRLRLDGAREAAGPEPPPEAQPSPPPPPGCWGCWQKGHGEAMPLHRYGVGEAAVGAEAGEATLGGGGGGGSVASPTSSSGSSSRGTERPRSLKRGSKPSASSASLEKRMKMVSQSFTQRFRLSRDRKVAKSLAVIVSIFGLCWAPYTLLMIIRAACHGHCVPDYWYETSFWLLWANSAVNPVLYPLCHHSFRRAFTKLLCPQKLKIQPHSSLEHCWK
A word on the Ki: it is the dissociation constant of the complex between target and ligand, obtained from inhibition or displacement. Higher therefore signals lower affinity. With `CCN1CCCc2c(OCCCN3CCCCC3)cccc21`, the affinity corresponds to a Ki of 1000 nM.

`CCN1CCCc2cccc(OCCCN3CCCCC3)c21` came in with a Ki of 1000 nM. That is a single-digit micromolar value.

Compound `N#CC(C#N)=C1N(CCCCN2CCCCC2)CCN1CCCCN1CCCCC1` showed a Ki of 56 nM.

Consider `c1cc(-c2ccc(CCN3CCCCC3)cc2)ccc1CCN1CCCCC1`, for which the affinity corresponds to a Ki of 1.2 nM.

Compound `c1cc(-c2ccc(CN3CCCCC3)cc2)ccc1CN1CCCCC1` gave a Ki of 0.3 nM.

On to `N#CC(C#N)=C1N(CCCCN2CCCCC2)CCN1CCCN1CCCCC1`, for which affinity was put at a Ki of 61 nM. This Ki is about 200-fold higher than that of the compound before.

Another experiment has as its target T1, Histamine H3 receptor. In words: Displacement of [125I]iodoproxyfan from histamine H3 receptor (unknown origin) expressed in CHO cells. The format is cell-based. In general terms: Loss of bound radioactivity is the signal in a displacement assay; it reports binding, not function.
In turn, `c1cc(OCCCN2CCCCC2)ccc1Cc1ccc(OCCCN2CCCCC2)cc1` yielded a Ki of 0.51 nM. That is a sub-nanomolar value.

Compound `c1cc(OCCCN2CCCCC2)ccc1CCc1ccc(OCCCN2CCCCC2)cc1` registered a Ki of 1.21 nM.

`O=C(/C=C/c1ccc(OCCCN2CCCCC2)cc1)c1ccc(OCCCN2CCCCC2)cc1` yielded a Ki of 0.53 nM.

Compound `c1cc(-c2ccc(OCCCN3CCCCC3)cc2)ccc1OCCCCN1CCCCC1` came in with a Ki of 0.13 nM.

For `c1cc(-c2ccc(OCCN3CCCCC3)cc2)ccc1OCCCN1CCCCC1`, the Ki is 0.49 nM.

Regarding `FC1(F)CCN(CCCOc2ccc(-c3ccc(OCCCN4CCCCC4)cc3)cc2)CC1`, the affinity corresponds to a Ki of 9.31 nM.

On to `c1cc(-c2ccc(OCCCN3CCCCC3)cc2)ccc1CN1CCCCC1`, for which affinity was put at a Ki of 1.64 nM.

As for `C(=C\c1ccc(-c2ccc(OCCCN3CCCCC3)cc2)cc1)/CN1CCCCC1`, the Ki was determined as 0.655 nM. Compared with the last compound, the Ki is about 2.5-fold lower.

Compound `CN1CCN(c2ccc(-c3ccc(OCCCN4CCCCC4)cc3)cc2)CC1` came in with an inhibition constant (Ki) of 0.23 nM.

`C(#Cc1ccc(-c2ccc(OCCCN3CCCCC3)cc2)cc1)CN1CCCCC1` registered a Ki of 0.67 nM.

Take `C(=C/c1ccc(-c2ccc(OCCCN3CCCCC3)cc2)cc1)/CN1CCCCC1`: the Ki worked out at 0.057 nM. Compared with the last compound, the Ki is about 12-fold lower.

`c1cc(-c2ccc(OCCCN3CCCCC3)cc2)ccc1CCCN1CCCCC1` registered a Ki of 0.17 nM.

For `c1ccc(-c2ccc(OCCCN3CCCCC3)cc2)c(CN2CCCCC2)c1`, the affinity corresponds to a Ki of 0.045 nM.

`c1cc(CN2CCCCC2)cc(-c2ccc(OCCCN3CCCCC3)cc2)c1` gave a Ki of 0.549 nM. Compared with the last compound, the Ki is about 12-fold higher.

The compound `O=C(CCc1ccc(OCCCN2CCCCC2)cc1)c1ccc(OCCCN2CCCCC2)cc1` returned a Ki of 0.64 nM.

In turn, `c1cc(OCCCN2CCCCC2)ccc1CCCc1ccc(OCCCN2CCCCC2)cc1` yielded an inhibitory constant (Ki) of 0.9 nM.
